# According to patent USRE45173E1, “Inhibitors of CYP 17” (Novartis AG, priority 2009, dated 2014):
# Structures can show the parent of a compound that is named as a salt.
# Biological target: recombinant human CYP17 enzyme (Homo sapiens (Human), UniProt P05093)
# Test: Cytochrome P450, 17-20 lyase (CYP17-lyase) assay, tritiated acetic acid release from 17-α-hydroxy pregnenolone [21-3H]
# Assay type: biochemical
# Settings: human CYP17, substrate 0.25 μM; read-out: Lyase IC 50 nM Human/Rat (Human)
# From the text: Assay method was adopted from a published protocol with some modifications to suit our requirements (Dmitry N Grigoryev et al, Analytical Biochemistry, (1999) 267, 319-330). […] Chloroform extraction removes the radioactive steroids and acetic acid is taken into aqueous layer. The tritiated acetic acid released in the assay thus extracted is quantified to determine the enzyme activity. […] The purified cell membrane preparations were used as the source for Human CYP17 enzyme. […] O, Nijar, et al., J Med Chem, (1998) 41, 902-912). […] Km for this substrate was determined by monitoring the tritiated acetic acid release as a function of substrate concentration. […] For the Km determination, the data was fit to a hyperbolic equation (Graphpad Prism® software IV). […] (Dmitry N. Grigoryev et al, Analytical Biochemistry (1999) 267, 319-330) […] NADPH is used at a final concentration of 4.2 mM. Total reaction volume was made up to 50 μL with 50 mM Phosphate buffer pH 7.5. The reaction mixture was incubated at room temperature for 90 minutes with gentle shaking. The reaction was stopped by the addition of 100 μL of buffer. 500 μL of 5% freshly prepared activated charcoal was added to the solution and mixed well by vortexing. The samples were centrifuged at 17568×g for 5 minutes. (14000 rpm). The supernatant was carefully transferred to fresh tube and 1.3 mL of scintillation fluid was added, mixed by vortexing. The radioactivity was measured in a 1450 MicroBeta TriLux™ scintillation counter from Wallac-Perkin Elmer®, USA. The measurements were carried out in 2.0 mL Eppendorforf™ tubes. […] The amount of tritiated acetic acid released is proportional to the lyase activity. Percent lyase activity in presence of inhibitor was calculated using the formula given below. […] Enzyme reaction in presence of inhibitor. • Positive control: […] For IC50 determination, the % inhibition was plotted as a function of inhibitor concentration. The data was fitted to sigmoidal equation using Graphpad Prism® software IV to generate IC50 values.
# Sequence of recombinant human CYP17 enzyme (P05093 whole entry): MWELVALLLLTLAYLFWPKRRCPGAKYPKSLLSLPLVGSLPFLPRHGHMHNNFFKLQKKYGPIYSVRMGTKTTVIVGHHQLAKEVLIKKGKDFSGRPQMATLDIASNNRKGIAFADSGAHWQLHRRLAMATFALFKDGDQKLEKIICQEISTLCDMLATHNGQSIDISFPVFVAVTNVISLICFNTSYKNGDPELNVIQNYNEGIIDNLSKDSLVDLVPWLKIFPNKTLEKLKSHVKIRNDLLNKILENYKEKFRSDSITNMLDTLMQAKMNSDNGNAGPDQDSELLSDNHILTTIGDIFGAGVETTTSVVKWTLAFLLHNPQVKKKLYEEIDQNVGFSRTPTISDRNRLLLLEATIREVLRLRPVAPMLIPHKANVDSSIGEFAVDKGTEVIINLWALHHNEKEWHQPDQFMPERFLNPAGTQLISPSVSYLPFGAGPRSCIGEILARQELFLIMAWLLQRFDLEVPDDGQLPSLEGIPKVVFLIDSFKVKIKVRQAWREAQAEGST
row,Compound,IC50
1,"COc1cccc(N2CCN(c3cnccc3C)C2=O)c1 [Example 56A, 1-(3-Methoxy-phenyl)-3-(4-methyl-pyridin-3-yl)-imidazolidin-2-one]",25 nM
2,"Cn1cncc1N1CCN(c2ccc3ncsc3c2)C1=O [Example 188A, 3-Benzothiazol-6-yl-3′-methyl-4,5-dihydro-3H,3′H-[1,4]biimidazolyl-2-one]",195 nM
3,"O=C1N(c2ccc3ncsc3c2)CCN1c1cnccc1CN1CCCC1 [Example 176A, 1-Benzothiazol-6-yl-3-(4-pyrrolidin-1-ylmethyl-pyridin-3-yl)-imidazolidin-2-one]",39 nM
4,"Cc1ccncc1N1CCN(c2ccc3nccnc3c2)C1=O [Example 77A, 1-(4-Methyl-pyridin-3-yl)-3-quinoxalin-6-yl-imidazolidin-2-one]",195 nM
5,"Cc1cc(Cl)ccc1N1CCN(c2cnccc2C)C1=O [Example 89A, 1-(4-Chloro-2-methyl-phenyl)-3-(4-methyl-pyridin-3-yl)-imidazolidin-2-one]",326 nM
6,"O=C1N(c2ccc3ncsc3c2)CCN1c1cnccc1CNC1CC1 [Example 178A, 1-Benzothiazol-6-yl-3-(4-cyclopropylaminomethyl-pyridin-3-yl)-imidazolidin-2-one]",19 nM
7,"Cc1ccncc1N1CCN(c2csc3ccncc23)C1=O [Example 136A, 1-(4-Methyl-pyridin-3-yl)-3-thieno[3,2-c]pyridin-3-yl-imidazolidin-2-one]",500 nM
8,"Cc1nc2ccc(N3CCN(c4cnccc4C)C3=O)cc2s1 [Example 105A, 1-(2-Methyl-benzothiazol-6-yl)-3-(4-methyl-pyridin-3-yl)-imidazolidin-2-one]",1470 nM
9,"Cc1ccncc1N1CCN(c2ccc3cccnc3c2)C1=O [Example 162A, 1-(4-methylpyridin-3-yl)-3-(quinolin-7-yl)imidazolidin-2-one]",317 nM
10,"Cc1ccncc1N1CCN(c2ccc3[nH]nc(N)c3c2)C1=O [Example 118A, 1-(3-Amino-1H-indazol-5-yl)-3-(4-methyl-pyridin-3-yl)-imidazolidin-2-one]",17 nM
11,"Cc1ccncc1N1CCN(c2cnsc2)C1=O [Example 190A, 1-Isothiazol-4-yl-3-(4-methyl-pyridin-3-yl)-imidazolidin-2-one]",89 nM
12,"Cc1ccncc1N1CCN(c2ccc(C#N)c(F)c2)C1=O [Example 140A, 2-Fluoro-4-[3-(4-methyl-pyridin-3-yl)-2-oxo-imidazolidin-1-yl]-benzonitrile]",97 nM
13,Cc1ccncc1N1CCN(c2ccnc(N)c2)C1=O [Example 76A],192 nM
14,"Cc1ccncc1N1CCN(c2ccc(-c3ccc(F)cc3)cc2)C1=O [Example 87A, 1-(4′-Fluoro-biphenyl-4-yl)-3-(4-methyl-pyridin-3-yl)-imidazolidin-2-one]",255 nM
15,"Cc1cc(-n2ccn(-c3cnccc3C)c2=O)cs1 [Example 92A, 1-(4-Methylpyridin-3-yl)-3-(5-methylthiophen-3-yl)-1H-imidazol-2(3H)-one]",21 nM
16,"Cc1ccncc1N1CCN(c2ccc3c(c2)OCCO3)C1=O [Example 49A, 1-(2,3-Dihydro-benzo[1,4]dioxin-6-yl)-3-(4-methyl-pyridin-3-yl)-imidazolidin-2-one]",30 nM
17,Cc1cn2cc(N3CCN(c4cnccc4C)C3=O)ccc2n1 [Example 104A],1990 nM
18,"Cc1ccncc1N1CCN(c2cn(C)c3ccc(Cl)cc23)C1=O [Example 137A, 1-(5-Chloro-1-methyl-1H-indol-3-yl)-3-(4-methyl-pyridin-3-yl)-imidazolidin-2-one]",1550 nM

# Other lines, results leading:
row,IC50,Compound
1,1970 nM,"Cc1ccncc1N1CCN(c2cccc3ccccc23)C1=O [Example 133A, 1-(4-Methyl-pyridin-3-yl)-3-naphthalen-1-O-imidazolidin-2-one]"
2,1150 nM,"Cc1ccncc1N1C(=O)N(c2ccc3ncsc3c2)CC1(C)C [Example 165A, 1-Benzothiazol-6-yl-4,4-dimethyl-3-(4-methyl-pyridin-3-yl)-imidazolidin-2-one]"
3,356 nM,"COc1nccc2sc(N3CCN(c4cnccc4C)C3=O)cc12 [Example 97A, 1-(4-Methoxy-thieno[3,2-c]pyridin-2-yl)-3-(4-methyl-pyridin-3-yl)-imidazolidin-2-one]"
4,346 nM,"Cc1ccncc1N1CCN(c2ccc3c(c2)C(C)(C)C(=O)N3CO)C1=O [Example 147A, 1-Hydroxymethyl-3,3-dimethyl-5-[3-(4-methyl-pyridin-3-yl)-2-oxo-imidazolidin-1-yl]-1,3-dihydro-indol-2-one]"
5,230 nM,"Cc1ccncc1N1CCN(c2ccc3oncc3c2)C1=O [Example 113A, 1-Benzo[d]isoxazol-5-yl-3-(4-methyl-pyridin-3-yl)-imidazolidin-2-one]"
6,174 nM,"Cc1ccncc1N1CCN(c2ccc3cc[nH]c3c2)C1=O [Example 144A, 1-(1H-Indol-6-yl)-3-(4-methyl-pyridin-3-yl)-imidazolidin-2-one]"
7,110 nM,"Cc1ccncc1N1CCN(c2ccc3nccn3c2)C1=O [Example 94A, 1-Imidazo[1,2-a]pyridin-6-yl-3-(4-methyl-pyridin-3-yl)-imidazolidin-2-one]"
8,46 nM,"Cc1ccncc1N1CCN(c2ccc3onc(C)c3c2)C1=O [Example 101A, 1-(3-Methyl-benzo[d]isoxazol-5-yl)-3-(4-methyl-pyridin-3-yl)-imidazolidin-2-one]"
9,37 nM,"COC(OC)c1ccncc1N1CCN(c2ccc3ncsc3c2)C1=O [Example 149A, 1-Benzothiazol-6-yl-3-(4-dimethoxymethyl-pyridin-3-yl)-imidazolidin-2-one]"
10,34 nM,"Cc1ccncc1N1CCN(c2ccccc2)C1=O [Example 69A, 1-(4-Methyl-pyridin-3-yl)-3-phenyl-imidazolidin-2-one]"
11,22 nM,"Cc1ccncc1N1CCN(c2csc3ccnc(Cl)c23)C1=O [Example 99A, 1-(4-Chloro-thieno[3,2-c]pyridin-3-yl)-3-(4-methyl-pyridin-3-yl)-imidazolidin-2-one]"
12,21 nM,"Cc1ccncc1-n1ccn(-c2ccc3ncsc3c2)c1=O [Example 142A, 1-Benzothiazol-6-yl-3-(4-methyl-pyridin-3-yl)-1,3-dihydro-imidazol-2-one]"
13,17 nM,"Cc1cc(N2CCN(c3cnccc3C)C2=O)ccc1F [Example 59A, 1-(4-Fluoro-3-methyl-phenyl)-3-(4-methyl-pyridin-3-yl)-imidazolidin-2-one]"
14,15 nM,"Cc1ccncc1N1CCN(c2ccc(Cl)c(F)c2)C1=O [Example 54A, 1-(4-Chloro-3-fluoro-phenyl)-3-(4-methyl-pyridin-3-yl)-imidazolidin-2-one]"
15,14 nM,"Cc1ccncc1N1CCN(c2ccc3c(c2)CCO3)C1=O [Example 51A, 1-(2,3-Dihydro-benzofuran-5-yl)-3-(4-methyl-pyridin-3-yl)-imidazolidin-2-one]"
16,12 nM,"Cc1cc(N2CCN(c3cnccc3C)C2=O)cs1 [Example 92B, 1-(4-Methyl-pyridin-3-yl)-3-(5-methyl-thiophen-3-yl)-imidazolidin-2-one]"
17,10 nM,"Cc1ccc(N2CCN(c3cnccc3C)C2=O)s1 [Example 15A, 1-(4-Methyl-pyridin-3-yl)-3-(5-methyl-thiophen-2-yl)-imidazolidin-2-one]"
18,5 nM,"Cc1ccncc1N1CCN(c2ccc(F)c(C(F)(F)F)c2)C1=O [Example 90A, 1-(4-Fluoro-3-trifluoromethyl-phenyl)-3-(4-methyl-pyridin-3-yl)-imidazolidin-2-one]"

# Same assay, conditions: human CYP17, substrate 0.25 μM; read-out: Lyase IC 50 Human/Rat (Human)
row,IC50,Compound
1,> 10000 nM,"O=C1N(c2ccc3ncsc3c2)CCN1c1cncc2nccn12 [Example 186A, 1-Benzothiazol-6-yl-3-imidazo[1,2-a]pyrazin-5-yl-imidazolidin-2-one]"
2,> 10000 nM,"Cc1ccncc1N1CCN(c2ccc3nn(C)cc3c2)C1=O [Example 132A, 1-(2-Methyl-2H-indazol-5-yl)-3-(4-methyl-pyridin-3-yl)-imidazolidin-2-one]"
3,> 10000 nM,"Cc1ccncc1N1CCN(c2cn(C)c3cccc(C#N)c23)C1=O [Example 146A, 1-Methyl-3-[3-(4-methyl-pyridin-3-yl)-2-oxo-imidazolidin-1-yl]-1H-indole-4-carbonitrile]"

# Same assay, conditions: read-out: Lyase IC 50 nM Human/Rat (Human)
row,Compound,IC50
1,"Cc1c(N2CCN(c3ccc4ncsc4c3)C2=O)cncc1C(F)(F)F [Example 153A, 1-(benzo[d]thiazol-6-yl)-3-(4-methyl-5-(trifluoromethyl)pyridin-3-yl)imidazolidin-2-one, Trifluoroacetic Acid Salt]",280 nM

# Same assay, conditions: substrate varied from 0.03125 μM to 1 μM, hyperbolic fit; read-out: Km (Michaelis Menton constant) of the substrate
row,Compound,Km
1,"CC(=O)C1(O)CCC2C3CC=C4CC(O)CCC4(C)C3CCC21C (stereo not drawn) [17-α-hydroxy pregnenolone [21-3H], reference compound]",0.25 µM
